Experiments:
[1] = system: Rhizoctonia solani isolate AG-8; assay: Field yield of Rhizoctonia inoculated spring wheat after herbicide treatment; assay type: in vivo; conditions: for Yield: glyphosate on glyphosate res. wheat, Buctril/Harmony on sensitive wheat
Source text: This example describes the response of glyphosate resistant and glyphosate sensitive spring wheat to inoculation with soil pathogens as judged by wheat yield. Inoculation simulates the green-bridge effect of dying weeds and volunteer in a standing wheat crop. The soil pathogens assessed were: Rhizoctonia solani isolate AG-8 and Gaeumannomyces graminis var. tritici. These pathogenic strains are prevalent in the Pacific Northwest and were isolated from the region. They have been maintained by the Department of Plant Pathology and USDA researchers at Washington State University.
Near isogenic lines (glyphosate resistant and glyphosate sensitive) of Westbred 926 and Bobwhite were seeded using a no-till drill at three different sites (Lind, Davenport and Pullman, Wash.).
To introduce the root pathogens into the wheat seed for distribution into the field, oat seeds, autoclaved and sterilized, were inoculated for each soilborne pathogen using isolated pathogen cultures. Oat seeds that were non-inoculated, but sterilized and autoclaved, served as a control. Following two weeks of pathogen growth, the inoculated oat seeds were dried down for 2 days and screened for potential contamination. To establish a green-bridge, a mixture of 15% barley and 20% oat inoculum seeds (by weight) were planted using a small plot no-till drill. One week after planting the introduced green-bridge, the wheat isolines were planted in rows adjacent to the barley green-bridge rows in a randomized, split-plot design, replicated in five randomized blocks. Inoculum treatment served as the main plot, and response to herbicides as the subplot factor.
This example describes the effect of herbicide treatment on spring wheat, averaged over all disease treatments, planted as described in Example 1. The appropriate herbicide was applied to each trial once the plants reached the 4-5 leaf stage with a custom built hand-pulled sprayer outfitted with a boom with a length of 16 feet with spray shields on the side to minimize drift. In this manner, an entire plot was treated at once with the appropriate herbicide rate. Entries that were resistant to glyphosate were treated with ROUNDUP® brand herbicide (0.63 kg/ha), available from Monsanto, St. Louis, Mo. Herbicide sensitive and resistant entries were treated with a common broadleaf herbicide treatment (Buctril/Harmony) or a no-spray control. Introduced green-bridge barley and any other weeds were manually removed 7-10 days after spray treatment to simulate the time required for ROUNDUP to take effect and maintained weed-free conditions to provide an accurate comparison to commercial weed management strategies needed to assess potential herbicide/disease interactions. […]

stripe rust = assay: Glyphosate amount and timing on glyphosate resistant Macon wheat: stripe rust and yield; assay type: in vivo, Puccinia striiformis
Source text: This example describes the effect of glyphosate treatment of glyphosate resistant wheat in varying amounts and at different times. Eight different treatment regimens were applied to the hard white spring wheat variety Macon, which is susceptible to stripe rust. Macon plots were planted at the Palouse Conservation Farm near Pullman, Washington and subjected to one of the following eight treatment regimens:
Treatment 1: no herbicide treatment and manual weed control;
Treatment 2: a 16 oz./A (0.50 kg/ha of active ingredient) application of glyphosate, one-half the recommended rate of 32 oz./A (1.0 kg/ha of active ingredient), was made ‘on-label’ to glyphosate resistant wheat at the 4-5 leaf stage.
Treatment 3: a first application of glyphosate at one-half (0.50 kg/ha of active ingredient) the recommended density of 1.0 kg/ha was made to glyphosate resistant wheat at the 4-5 leaf stage according to the manufacturer's instructions. A second application of 16 oz./A (0.50 kg/ha of active ingredient) glyphosate was made once moderate stripe rust symptoms appeared (42 days following the first glyphosate application).
Treatment 4: a 16 oz./A (0.50 kg/ha of active ingredient) application of glyphosate, one-half the recommended rate, was made to glyphosate resistant wheat once moderate stripe rust symptoms appeared.
Treatment 5: a 32 oz./A (1.0 kg/ha of active ingredient) application of glyphosate, the recommended full rate, was made ‘on-label’ to glyphosate resistant wheat at the 4-5 leaf stage.
Treatment 6: a first application of 32 oz./A. (1.0 kg/ha of active ingredient) glyphosate, the recommended full rate, was made ‘on-label’ to glyphosate resistant wheat at the 4-5 leaf stage and a second application of 32 oz./A. (1.0 kg/ha) glyphosate was made once moderate stripe rust symptoms appeared.
Treatment 7: a 32 oz./A. (1.0 kg/ha of active ingredient) application of glyphosate was made to glyphosate resistant wheat once moderate stripe rust symptoms appeared. Treatment 8: a 48 oz./A. ([…] of active ingredient) application of glyphosate, 1.5 times the recommended rate, was made to glyphosate resistant plants at the 4-5 leaf stage.
With reference to Table 7, stripe rust severity is characterized with two numerical indications. The first is a number characterizing the stripe rust severity on a scale of 0-9, with 0 corresponding to no infection and 9 being a high level of spore activity and infection. The second number is a percentage of the plants in the plot infected with the rating described by the first number.

Ggt = conditions: New Zealand studies; green-bridge effect on couch grass; cited from earlier work
[2] = 16 oz (52 days) and 16 oz (94 days)
[3] = 32 oz (52 days) and 32 oz (94 days)
[4] = off-label applications made 94 days after planting

O=C(O)CNCP(=O)(O)O [glyphosate, N-phosphonomethylglycine]
Yield ([1]; Davenport): 29.0 bu/acre
Yield ([1]; Lind): 14.0 bu/acre
Yield ([1]; Pullman): 53.9 bu/acre
yield relative to untreated and Buctril/Harmony treated glyphosate sensitive wheat ([1]; glyphosate resistant wheat): enhanced yield at each location
Stripe Rust (96 days after planting), percentage of the plants in the plot infected with the rating (stripe rust; 16 oz (52 days)): 10%
Stripe Rust (102 days after planting), percentage of the plants in the plot infected with the rating (stripe rust; 16 oz (52 days)): 30%
Stripe Rust (102 days after planting), severity on a scale of 0-9 (stripe rust; 16 oz (52 days)): 7-8
Stripe Rust (106 days after planting), percentage of the plants in the plot infected with the rating (stripe rust; 16 oz (52 days)): 30%
Stripe Rust (106 days after planting), severity on a scale of 0-9 (stripe rust; 16 oz (52 days)): 8
Yield (stripe rust; 16 oz (52 days)): 60.2 bu/A
Stripe Rust (96 days after planting), percentage of the plants in the plot infected with the rating (stripe rust; [2]): 10%
Stripe Rust (96 days after planting), severity on a scale of 0-9 (stripe rust; [2]): 4-5
Stripe Rust (102 days after planting), percentage of the plants in the plot infected with the rating (stripe rust; [2]): 10%
Stripe Rust (102 days after planting), severity on a scale of 0-9 (stripe rust; [2]): 0-1
Stripe Rust (106 days after planting), percentage of the plants in the plot infected with the rating (stripe rust; [2]): 10%
Stripe Rust (106 days after planting), severity on a scale of 0-9 (stripe rust; [2]): 2
Yield (stripe rust; [2]): 68.7 bu/A
Stripe Rust (96 days after planting), severity on a scale of 0-9 (stripe rust; 16 oz (52 days), 0 = no infection, 9 = high level of spore activity and infection): 7-8
Stripe Rust (96 days after planting), percentage of the plants in the plot infected with the rating (stripe rust; 16 oz (94 days)): 20%
Stripe Rust (102 days after planting), percentage of the plants in the plot infected with the rating (stripe rust; 16 oz (94 days)): 20%
Stripe Rust (102 days after planting), severity on a scale of 0-9 (stripe rust; 16 oz (94 days)): 2-3
Stripe Rust (106 days after planting), percentage of the plants in the plot infected with the rating (stripe rust; 16 oz (94 days)): 15%
Stripe Rust (106 days after planting), severity on a scale of 0-9 (stripe rust; 16 oz (94 days)): 2-3
Yield (stripe rust; 16 oz (94 days)): 52.7 bu/A
Stripe Rust (96 days after planting), severity on a scale of 0-9 (stripe rust; 16 oz (94 days), once moderate stripe rust symptoms appeared): 7-8
Stripe Rust (96 days after planting), percentage of the plants in the plot infected with the rating (stripe rust; 32 oz (52 days)): 20%
Stripe Rust (96 days after planting), severity on a scale of 0-9 (stripe rust; 32 oz (52 days)): 7-8
Stripe Rust (102 days after planting), percentage of the plants in the plot infected with the rating (stripe rust; 32 oz (52 days)): 40%
Stripe Rust (102 days after planting), severity on a scale of 0-9 (stripe rust; 32 oz (52 days)): 7-8
Stripe Rust (106 days after planting), percentage of the plants in the plot infected with the rating (stripe rust; 32 oz (52 days)): 60%
Stripe Rust (106 days after planting), severity on a scale of 0-9 (stripe rust; 32 oz (52 days)): 8
Yield (stripe rust; 32 oz (52 days)): 80.3 bu/A
Stripe Rust (96 days after planting), percentage of the plants in the plot infected with the rating (stripe rust; [3]): 5%
Stripe Rust (96 days after planting), severity on a scale of 0-9 (stripe rust; [3]): 9
Stripe Rust (102 days after planting), percentage of the plants in the plot infected with the rating (stripe rust; [3]): 5%
Stripe Rust (102 days after planting), severity on a scale of 0-9 (stripe rust; [3]): 1-2
Stripe Rust (106 days after planting), percentage of the plants in the plot infected with the rating (stripe rust; [3]): 10%
Stripe Rust (106 days after planting), severity on a scale of 0-9 (stripe rust; [3]): 3
Yield (stripe rust; [3]): 74.5 bu/A
Stripe Rust (96 days after planting), percentage of the plants in the plot infected with the rating (stripe rust; 32 oz (94 days)): 25%
Stripe Rust (102 days after planting), percentage of the plants in the plot infected with the rating (stripe rust; 32 oz (94 days)): 20%
Stripe Rust (102 days after planting), severity on a scale of 0-9 (stripe rust; 32 oz (94 days)): 0-1
Stripe Rust (106 days after planting), percentage of the plants in the plot infected with the rating (stripe rust; 32 oz (94 days)): 5%
Stripe Rust (106 days after planting), severity on a scale of 0-9 (stripe rust; 32 oz (94 days)): 2
Yield (stripe rust; 32 oz (94 days)): 64.5 bu/A
Stripe Rust (96 days after planting), severity on a scale of 0-9 (stripe rust; 32 oz (94 days), once moderate stripe rust symptoms appeared): 7-8
Stripe Rust (96 days after planting), percentage of the plants in the plot infected with the rating (stripe rust; 48 oz (52 days)): 2%
Stripe Rust (96 days after planting), severity on a scale of 0-9 (stripe rust; 48 oz (52 days)): 7-8
Stripe Rust (102 days after planting), percentage of the plants in the plot infected with the rating (stripe rust; 48 oz (52 days)): 10%
Stripe Rust (102 days after planting), severity on a scale of 0-9 (stripe rust; 48 oz (52 days)): 4-5
Stripe Rust (106 days after planting), percentage of the plants in the plot infected with the rating (stripe rust; 48 oz (52 days)): 20%
Stripe Rust (106 days after planting), severity on a scale of 0-9 (stripe rust; 48 oz (52 days)): 8
Yield (stripe rust; 48 oz (52 days)): 67.8 bu/A
control of stripe rust compared to the 16 oz./A and 32 oz./A application (stripe rust; 48 oz./A rate applied at the 4-5 leaf stage): did the best job of controlling stripe rust
effect on plants moderately infected with stripe rust (stripe rust; [4]): a curative effect was observed
formation of necrotic stripes on the leaves, time following glyphosate application (stripe rust; [4]): second day
control of stripe rust in the trial (stripe rust; treatments 3 and 6, split-treatments (52 and 94 days after planting)): best control of stripe rust
levels of infection of cereals with Ggt (Ggt): increases the levels of infection with Ggt
